#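 A five-concentration, 48-hour dose response in 96-well plates underlies each endpoint, interpolated linearly between surrounding concentrations. TGI: total growth inhibition.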
# How the values were obtained:
# Assay in all cases: NCI tumour cell line growth inhibition, 48 h
# A549 NSCLC = system: A549 NSCLC
# HCT-116 colon = system: HCT-116 colon
# NCI-H226 lung = system: NCI-H226 lung
# HCT-15 colon = system: HCT-15 colon
# MOLT-4 leukemia = system: MOLT-4 leukemia
# OVCAR-8 ovarian = system: OVCAR-8 ovarian
# HCC-2998 colon = system: HCC-2998 colon
# SW-620 colon = system: SW-620 colon
# SN12C renal = system: SN12C renal
# RPMI-8226 leukemia = system: RPMI-8226 leukemia
# K-562 leukemia = system: K-562 leukemia
# OVCAR-5 ovarian = system: OVCAR-5 ovarian
# RXF 393 renal = system: RXF 393 renal
# 786-0 renal = system: 786-0 renal
# SF-539 CNS = system: SF-539 CNS
Compound,TGI (A549 NSCLC),TGI (HCT-116 colon),TGI (NCI-H226 lung),TGI (HCT-15 colon),TGI (MOLT-4 leukemia),TGI (OVCAR-8 ovarian),TGI (HCC-2998 colon),TGI (SW-620 colon),TGI (SN12C renal),TGI (RPMI-8226 leukemia),TGI (K-562 leukemia),TGI (OVCAR-5 ovarian),TGI (RXF 393 renal),TGI (786-0 renal),TGI (SF-539 CNS)
O=C1C(Cl)C(c2cccc(Cl)c2)N1c1ccc(-n2c(=S)[nH]c3ccccc3c2=O)cc1 (stereo not given),81.5 µM,85.3 µM,73.8 µM,14.4 µM,37.6 µM,> 100 µM,37.8 µM,> 100 µM,31.9 µM,55.6 µM,45.3 µM,57.5 µM,29 µM,54.9 µM,54.6 µM
COC(=O)C(NC(=O)c1ccccc1)c1ccco1 (stereo not given),> 100 µM,> 100 µM,> 100 µM,> 100 µM,> 100 µM,> 100 µM,> 100 µM,> 100 µM,> 100 µM,> 100 µM,> 100 µM,> 100 µM,> 100 µM,> 100 µM,> 100 µM
COc1ccc(CCN2CCN(CCc3ccc(OC)cc3)CC2)cc1,> 100 µM,> 100 µM,> 100 µM,> 100 µM,> 100 µM,> 100 µM,> 100 µM,> 100 µM,> 100 µM,> 100 µM,> 100 µM,> 100 µM,95.1 µM,> 100 µM,> 100 µM
COC(=O)CCc1cc(O)c2c(c1)C(C(=O)OC)C(c1ccc(O)c(O)c1)O2 (stereo not given),> 100 µM,> 100 µM,> 75 µM,> 100 µM,> 88.8 µM,65.1 µM,39.8 µM,> 100 µM,> 88.7 µM,> 92.9 µM,10.6 µM,> 100 µM,> 100 µM,> 100 µM,32.9 µM
Cc1cc(=O)n2nc(CN3CCCCC3)sc2n1,> 100 µM,> 100 µM,> 100 µM,> 100 µM,> 100 µM,> 100 µM,> 100 µM,> 100 µM,> 100 µM,> 100 µM,> 100 µM,> 100 µM,> 100 µM,> 100 µM,> 100 µM
CNc1nc2n(CCO)c(-c3ccccc3)c(-c3ccccc3)nc-2c(=O)n1,> 50 µM,> 50 µM,> 50 µM,> 50 µM,> 50 µM,> 50 µM,> 50 µM,> 50 µM,> 50 µM,> 50 µM,> 50 µM,> 50 µM,> 50 µM,> 50 µM,> 50 µM
O=C1NCCCNCCCNCCCNC(=O)c2cccc1n2,> 100 µM,> 100 µM,> 100 µM,> 100 µM,> 100 µM,> 100 µM,> 100 µM,> 100 µM,> 100 µM,> 100 µM,> 100 µM,> 100 µM,> 100 µM,> 100 µM,> 100 µM
Cc1ccc2c(c1)C1(C)OC(C=CC1=O)O2 (stereo not given),10.1 µM,0.652 µM,7.94 µM,0.772 µM,0.862 µM,0.803 µM,8.15 µM,1.05 µM,0.862 µM,1.65 µM,0.902 µM,4.46 µM,1.56 µM,0.822 µM,1.27 µM
CC(C)(C)C1=CC(=C(c2ccc(-c3c4nc(c(-c5ccc(C(=C6C=C(C(C)(C)C)C(=O)C(C(C)(C)C)=C6)c6cc(C(C)(C)C)c(O)c(C(C)(C)C)c6)cc5)c5ccc([nH]5)c(-c5ccc(C(=C6C=C(C(C)(C)C)C(=O)C(C(C)(C)C)=C6)c6cc(C(C)(C)C)c(O)c(C(C)(C)C)c6)cc5)c5nc(c(-c6ccc(C(=C7C=C(C(C)(C)C)C(=O)C(C(C)(C)C)=C7)c7cc(C(C)(C)C)c(O)c(C(C)(C)C)c7)cc6)c6ccc3[nH]6)C=C5)C=C4)cc2)c2cc(C(C)(C)C)c(O)c(C(C)(C)C)c2)C=C(C(C)(C)C)C1=O,> 100 µM,> 100 µM,> 100 µM,> 100 µM,> 100 µM,> 100 µM,> 100 µM,> 100 µM,> 100 µM,> 100 µM,> 100 µM,> 100 µM,> 100 µM,> 100 µM,> 100 µM
COc1ccc(O)c(/C(C)=N/NC(=S)N(C)C)c1,> 100 µM,> 100 µM,> 100 µM,> 100 µM,> 100 µM,> 100 µM,> 100 µM,> 100 µM,> 100 µM,> 100 µM,> 100 µM,> 100 µM,> 100 µM,> 100 µM,> 100 µM
O=c1oc2cc(O)ccc2c(O)c1C(c1ccccc1F)c1c(O)c2ccc(O)cc2oc1=O,> 100 µM,> 100 µM,> 100 µM,> 100 µM,> 100 µM,> 100 µM,> 100 µM,> 100 µM,> 100 µM,83.4 µM,69 µM,> 100 µM,> 100 µM,> 100 µM,> 100 µM
CCn1c(SCC(=O)NNC(=S)Nc2ccc(C)cc2)nc2ccccc2c1=O,> 100 µM,> 100 µM,> 100 µM,> 100 µM,> 100 µM,> 100 µM,> 100 µM,> 100 µM,> 100 µM,> 100 µM,> 100 µM,> 100 µM,> 100 µM,> 100 µM,> 100 µM

# From PubChem BioAssay (NCI)
